From the supplement of paper PMC11061612

How the values were obtained:
Assay in all cases: combination Emax (second highest fraction inhibited in the dose matrix, 72 h); higher = more inhibition; extreme values may be limits of the assay
Hey (Ovarian Carcinoma) = system: Hey (Ovarian Carcinoma)
Method in brief: (§1)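 Cell lines grown in DMEM/F12 or RPMI with 10% FBS were plated in 1536-well plates and held 24 hours at 37°C, 5% CO2 before 72 hours of exposure to two-drug dose matrices, with DMSO typically at 0.2%. CellTiter-Glo 2.0 luminescence gave viability, which was converted to inhibition. Vehicle wells were set to 0 and blank wells to 1. Combination Emax is the second-highest inhibition in the matrix, and Bliss excess is the observed combination effect minus the expected EA + EB − EA·EB, where EA and EB are the single-agent effects.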

[1] = system: ME-180 (Cervical Carcinoma)
Method in brief: as §1

[2] = system: KGN (Other Solid Carcinomas)
Method in brief: as §1

[3] = system: OE33 (Esophageal Adenocarcinoma)
Method in brief: as §1

[4] = system: NCI-H522 (Lung Adenocarcinoma)
Method in brief: as §1

[5] = system: MV-4-11 (Acute Myeloid Leukemia)
Method in brief: as §1

[6] = system: SK-LU-1 (Lung Adenocarcinoma)
Method in brief: as §1

[7] = system: MOLT-4 (T-Lymphoblastic Leukemia)
Method in brief: as §1

[8] = system: Ca-Ski (Cervical Carcinoma)
Method in brief: as §1

[9] = system: KOPN-8 (B-Lymphoblastic Leukemia)
Method in brief: as §1

[10] = system: HCC1500 (Breast Carcinoma)
Method in brief: as §1

[11] = system: NCI-H1092 (Small Cell Lung Carcinoma)
Method in brief: as §1

[12] = system: NCI-H1993 (Lung Adenocarcinoma)
Method in brief: as §1

[13] = system: ML-2 (Acute Myeloid Leukemia)
Method in brief: as §1

[14] = system: MDA-MB-453 (Breast Carcinoma)
Method in brief: as §1

[15] = system: OACM5-1 (Esophageal Adenocarcinoma)
Method in brief: as §1

[16] = system: EJM (Plasma Cell Myeloma)
Method in brief: as §1

[17] = system: ALL-SIL (T-Lymphoblastic Leukemia)
Method in brief: as §1

[18] = system: A4-Fuk (B-Lymphoblastic Leukemia)
Method in brief: as §1

COLO-679 (Melanoma) = system: COLO-679 (Melanoma)
Method in brief: as §1

| SMILES | combination Emax (Hey (Ovarian Carcinoma)) | combination Emax [1] | combination Emax [2] | combination Emax [3] | combination Emax [4] | combination Emax [5] | combination Emax [6] | combination Emax [7] | combination Emax [8] | combination Emax [9] | combination Emax [10] | combination Emax [11] | combination Emax [12] | combination Emax [13] | combination Emax [14] | combination Emax [15] | combination Emax [16] | combination Emax [17] | combination Emax [18] | combination Emax (COLO-679 (Melanoma)) |
| --- | --- | --- | --- | --- | --- | --- | --- | --- | --- | --- | --- | --- | --- | --- | --- | --- | --- | --- | --- | --- |
| CCN(CCO)CCCOc1ccc2c(Nc3cc(CC(=O)Nc4cccc(F)c4)[nH]n3)ncnc2c1 [AZD2811] + C[C@@H]1COCCN1C2=NC(=NC(=C2)C3(CC3)[S@](=N)(=O)C)C4=C5C=CNC5=NC=C4 [AZD6738] (first compound max 1 µM, 7x7, partner max 10 µM) | 0.711 | 0.43 | 0.822 | 0.8 | 0.142 | 0.998 | 0.473 | 1 | 0.607 | 0.855 | 0.312 | 0.236 | 0.513 | 0.985 | 0.807 | 0.44 | 0.858 | 0.981 | 0.747 | 0.679 |
| C=CCn1c(=O)c2cnc(Nc3ccc(N4CCN(C)CC4)cc3)nc2n1-c1cccc(C(C)(C)O)n1 [AZD1775] + C[C@@H]1COCCN1C2=NC(=NC(=C2)C3(CC3)[S@](=N)(=O)C)C4=C5C=CNC5=NC=C4 [AZD6738] (first compound max 1 µM, partner max 10 µM) | 0.809 | 0.802 | 0.922 | 0.819 | 0.487 | 0.991 | 0.488 | 1 | 0.869 | 0.965 | 0.382 | 0.397 | 0.689 | 1 | 0.891 | 0.778 | 0.904 | 0.992 | 0.875 | 0.723 |
